Several values for one entry are separate records, joined by “and”; a condition that tells them apart may be missing. Equal entries are not always repeated.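 Five compound concentrations were applied to cells in 96-well plates for 48 hours; endpoints were derived by simple linear interpolation of the resulting dose-response curve. GI50 marks 50% less growth. At the TGI there is no net growth.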 Where only a bound is given, the exact number is not on record here.

Some test systems named below: NCI-H226 lung; OVCAR-4 ovarian; K-562 leukemia; LOX IMVI melanoma; OVCAR-8 ovarian; T-47D breast; UACC-62 melanoma; UO-31 renal.
Experiment in all cases: inhibition of tumour cell growth, NCI panel, 48 h

For `Cc1cc(C)c2c(n1)sc1c(N)ncnc12`, the GI50 in the assay with NCI-H226 lung is 11.9 µM; with OVCAR-4 ovarian it was greater than 25 µM; with K-562 leukemia, greater than 25 µM; with LOX IMVI melanoma it was greater than 25 µM; with OVCAR-8 ovarian, greater than 25 µM; in the assay with T-47D breast it was greater than 25 µM. The GI50 with UACC-62 melanoma is greater than 25 µM; with UO-31 renal, 12.9 µM. For the same molecule, the TGI in the assay on NCI-H226 lung, in the assay on OVCAR-4 ovarian, in the assay on K-562 leukemia, in the assay on LOX IMVI melanoma, in the assay with OVCAR-8 ovarian and with T-47D breast was greater than 25 µM each time. Further, the TGI in the assay with UACC-62 melanoma and in the assay with UO-31 renal was greater than 25 µM throughout.

`C=C/C(C)=C/C[C@]1(C)[C@H](C)[C@@H](OC(=O)CCC)[C@H](O)[C@@]23C(=C[C@H](OC)C[C@@H]12)[C@@H](OC(=O)CCC)O[C@H]3OC(C)=O`: the GI50 in the assay on NCI-H226 lung was 0.38 µM; in the assay with OVCAR-4 ovarian, 0.351 µM; with K-562 leukemia it was 0.438 µM; in the assay with LOX IMVI melanoma, 1.22 µM; with OVCAR-8 ovarian, 0.447 µM; in the assay on T-47D breast, 0.36 µM. Further, the GI50 in the assay with UACC-62 melanoma is 0.529 µM; in the assay on UO-31 renal it was 0.212 µM. Also, the TGI came to 1.34 µM with NCI-H226 lung; 1.34 µM in the assay on OVCAR-4 ovarian; 2.41 µM in the assay with K-562 leukemia; 2.56 µM in the assay on LOX IMVI melanoma; 2.42 µM in the assay on OVCAR-8 ovarian; 1.71 µM with T-47D breast. The figures for the TGI with UACC-62 melanoma and in the assay with UO-31 renal were 1.88 µM and 0.586 µM, respectively.

`Cn1c(=O)c2[nH]c(SCCN3CCOCC3)nc2n(C)c1=S`: the TGI with NCI-H226 lung, in the assay with OVCAR-4 ovarian, with K-562 leukemia, with LOX IMVI melanoma, in the assay with OVCAR-8 ovarian and with T-47D breast was greater than 100 µM each time. Besides, the TGI with UACC-62 melanoma and in the assay with UO-31 renal was greater than 100 µM each time.

For the molecule `CCn1c(-c2cc3c([nH]c4ccccc43)c(-c3cccc(O)c3)n2)n[nH]c1=S`, the GI50 with NCI-H226 lung is 6.45 µM; with OVCAR-4 ovarian it was 3.12 µM; in the assay with K-562 leukemia, 1.88 µM; in the assay on LOX IMVI melanoma it was 2.93 µM; in the assay on OVCAR-8 ovarian, 3.96 µM; in the assay with T-47D breast, 2.36 µM. Also, the GI50 in the assay with UACC-62 melanoma was 1.95 µM; in the assay on UO-31 renal, 2.24 µM. Besides, the TGI with NCI-H226 lung is 55.8 µM; with OVCAR-4 ovarian, 13.1 µM; with K-562 leukemia it was greater than 100 µM; in the assay with LOX IMVI melanoma it was 12.7 µM; in the assay on OVCAR-8 ovarian, 31 µM; in the assay on T-47D breast, 9.12 µM. In addition, the TGI with UACC-62 melanoma came out at 7.35 µM; in the assay with UO-31 renal, 11.8 µM.

On to `CCN1CCN(Cc2ccc(NC(=O)Nc3nc4ccc(Oc5ccnc(C(=O)NC)c5)cc4s3)cc2C(F)(F)F)CC1`, for which the GI50 is 1.45 µM in the assay with NCI-H226 lung; 0.0514 µM in the assay with K-562 leukemia; 1.71 µM in the assay on LOX IMVI melanoma; 2.11 µM in the assay with OVCAR-8 ovarian; 1.99 µM in the assay with T-47D breast; 1.7 µM with UACC-62 melanoma. Moreover, the GI50 in the assay on UO-31 renal was 1.83 µM. For the same molecule, the TGI came to 3.16 µM in the assay on NCI-H226 lung; 1.27 µM with K-562 leukemia; 3.17 µM in the assay with LOX IMVI melanoma; 4.49 µM in the assay on OVCAR-8 ovarian; 4.25 µM in the assay with T-47D breast; 3.28 µM in the assay on UACC-62 melanoma. Also, the TGI in the assay on UO-31 renal amounted to 3.4 µM.

Turning to `C=C1C(=O)O[C@H]2[C@H]1CC/C(COC(=O)NCc1ccc(OC)cc1)=C\CC[C@@]1(C)O[C@@H]21`, the GI50 is 1.1 µM in the assay with NCI-H226 lung; 0.992 µM with OVCAR-4 ovarian; 0.897 µM with K-562 leukemia; 0.405 µM in the assay with LOX IMVI melanoma; 1.23 µM in the assay with OVCAR-8 ovarian; 0.757 µM in the assay on T-47D breast. Moreover, the GI50 was 1.59 µM with UACC-62 melanoma and 0.501 µM in the assay on UO-31 renal. The TGI turned out to be 5.01 µM in the assay on NCI-H226 lung; 13.5 µM with OVCAR-4 ovarian; 9.08 µM with K-562 leukemia; 1.47 µM in the assay on LOX IMVI melanoma; 9.27 µM with OVCAR-8 ovarian; 2.91 µM with T-47D breast. The TGI with UACC-62 melanoma was determined as 3.16 µM; in the assay on UO-31 renal it was 0.991 µM.

For `COc1ccc2c(c1OC)-c1c(c3ccc([N+](=O)[O-])cc3c(=O)n1CCCBr)C2=O`, the GI50 in the assay with NCI-H226 lung is 26.8 µM; with K-562 leukemia it was 99.7 µM; with LOX IMVI melanoma it was 12.7 µM; with OVCAR-8 ovarian it was greater than 100 µM; in the assay on T-47D breast, 97.3 µM; with UACC-62 melanoma, 18.1 µM. In addition, the GI50 in the assay with UO-31 renal was 35.3 µM. Besides, the TGI in the assay on NCI-H226 lung was 84.3 µM; in the assay with K-562 leukemia, greater than 100 µM; with LOX IMVI melanoma it was 45.5 µM; with OVCAR-8 ovarian it was greater than 100 µM; with T-47D breast it was greater than 100 µM; in the assay on UACC-62 melanoma, 76.1 µM. In the assay with UO-31 renal, this molecule displayed a TGI greater than 100 µM.

As for `CN1CCN(Cc2ccc(NC(=O)c3cncc(C#Cc4cnc(N)cc4C#N)c3)cc2C(F)(F)F)CC1`, the GI50 was 0.706 µM in the assay on NCI-H226 lung; 0.034 µM in the assay with K-562 leukemia; 0.601 µM in the assay on LOX IMVI melanoma; 4.51 µM in the assay on OVCAR-8 ovarian; 4.42 µM with T-47D breast; 0.877 µM in the assay on UACC-62 melanoma. Moreover, in the assay with UO-31 renal, the GI50 is 2 µM. For the same molecule, the TGI with NCI-H226 lung is 11.9 µM; in the assay on K-562 leukemia, 12.1 µM; in the assay on LOX IMVI melanoma it was 1.99 µM; with OVCAR-8 ovarian, 19 µM; in the assay on T-47D breast, 21.1 µM; in the assay on UACC-62 melanoma, 3.92 µM. The TGI with UO-31 renal was determined as 6.95 µM.

For the molecule `Cc1nc2ccc(Br)cc2c(=O)n1-c1ccc(NC2OCC(O)C(O)C2O)cc1` (stereo not drawn), the TGI was greater than 100 µM in the assay on NCI-H226 lung; greater than 100 µM in the assay on OVCAR-4 ovarian; greater than 100 µM in the assay on K-562 leukemia; 33.8 µM and > 100 µM in the assay with LOX IMVI melanoma; greater than 100 µM with OVCAR-8 ovarian; greater than 100 µM in the assay with UACC-62 melanoma. In the assay on UO-31 renal, this molecule yielded a TGI greater than 100 µM. Besides, the GI50 in the assay with K-562 leukemia was 17.3 µM and > 100 µM; in the assay on LOX IMVI melanoma, 15.3 µM and > 100 µM; in the assay on OVCAR-8 ovarian, 43.5 µM and > 100 µM; in the assay on UACC-62 melanoma it was 30.7 µM and > 100 µM; in the assay on UO-31 renal, 35.8 µM and > 100 µM.

Regarding `C[Si](C)(c1ccc(C(=O)O)cc1)c1ccc(C(=O)O)cc1`, the TGI in the assay with NCI-H226 lung, in the assay on OVCAR-4 ovarian, in the assay on K-562 leukemia, in the assay on LOX IMVI melanoma, in the assay on OVCAR-8 ovarian and in the assay on T-47D breast was greater than 100 µM each time. This molecule came in with a TGI in the assay on UACC-62 melanoma greater than 100 µM.

For the origin of these results see PubChem BioAssay (NCI).
